Laboratory results published in US9096492B2, “Hydrated N-fullerene amino acids, method for producing the latter, and pharmaceutical compositions on the basis thereof” (priority 2011, dated 2015).
Like-named read-outs stand apart in the source and are kept apart here.

Tests used:
[1] = test system: A/Puerto Rico/8/34 (H1N1) influenza virus; format: in vivo, mice; details: for Size of chronic post-influenza pneumonia sites (% of the total surface area of the lungs): the lower of the virus doses used, day 15
[2] = test system: A/Vladivostok/2/09 (H1N1) influenza virus; format: in vivo, mice; details: for Size of chronic post-influenza pneumonia sites (% of the total surface area of the lungs): the lower of the virus doses used, day 15
[3] = Tamiflu 20 mg/kg, Summary dose, n=28
[4] = Tamiflu 20 mg/kg, Summary dose, n=19

How did the “reduction of the death rate compared to the control” value ([1]; Tamiflu) turn out when `CCOC(=O)C1=C[C@@H](OC(CC)CC)[C@H](NC(C)=O)[C@@H](N)C1.O=P(O)(O)O` [Tamiflu, ethyl(3R,4R,5S)-4-acetamido-5-amino-3-(1-ethylpropoxy)-1-cyclohexene-1-carboxylate phosphate, reference compound] was run?
The value was “approximately 70%”.

What about the “Average lifetime (LD)” value [1, 3] of the same molecule?
The value was 13.9 days.

What about the “Increase in LD” value [1, 3] of the same molecule?
Its value is 3.6 days.

And the “Index of protection, %” value [1, 3]?
Its value is 66.7%.

What about the “Mortality rate, %” value [1, 3] of the same molecule?
The value was 21.4%.

And the Number of survivors [1, 3]?
Its Number of survivors is 22.

What about the “Average lifetime (LD)” value ([1]; Tamiflu 20 mg/kg, […], n=13) of the same molecule?
Its value is 14.4 days.

And the “Increase in LD” value ([1]; Tamiflu 20 mg/kg, […], n=13)?
The value was 2.1 days.

What about the “Index of protection, %” value ([1]; Tamiflu 20 mg/kg, […], n=13) of the same molecule?
The value was 67.0%.

And the “Mortality rate, %” value ([1]; Tamiflu 20 mg/kg, […], n=13)?
Its value is 15.4%.

And the Number of survivors ([1]; Tamiflu 20 mg/kg, […], n=13)?
Its Number of survivors is 11.

What about the “Average lifetime (LD)” value ([1]; Tamiflu 20 mg/kg, […], n=15) of the same molecule?
Its value is 13.5 days.

And the “Increase in LD” value ([1]; Tamiflu 20 mg/kg, […], n=15)?
Its value is 5.5 days.

What about the “Index of protection, %” value ([1]; Tamiflu 20 mg/kg, […], n=15) of the same molecule?
Its value is 68.5%.

And the “Mortality rate, %” value ([1]; Tamiflu 20 mg/kg, […], n=15)?
Its value is 26.7%.

And the Number of survivors ([1]; Tamiflu 20 mg/kg, […], n=15)?
The Number of survivors was 11.

And the “Size of chronic post-influenza pneumonia sites (% of the total surface area of the lungs)” value ([1]; Tamiflu 20 mg/kg)?
The value was 15 ± 4; %.

And the “activity against the strain” value ([2]; Tamiflu 20 mg/kg)?
Its value is “inactive”.

And the “Average lifetime (LD)” value [2, 4]?
Its value is 12.5 days.

And the “Increase in LD” value [2, 4]?
The value was 0.2 days.

And the “Index of protection, %” value [2, 4]?
The value was 14.0%.

What about the “Mortality rate, %” value [2, 4] of the same molecule?
The value was 36.8%.

What about the Number of survivors [2, 4] of the same molecule?
The Number of survivors was 12.

What about the “Average lifetime (LD)” value ([2]; Tamiflu 20 mg/kg, […], n=9) of the same molecule?
The value was 13.4 days.

What about the “Increase in LD” value ([2]; Tamiflu 20 mg/kg, […], n=9) of the same molecule?
Its value is 0.3 days.

What about the “Index of protection, %” value ([2]; Tamiflu 20 mg/kg, […], n=9) of the same molecule?
Its value is 18.5%.

What about the “Mortality rate, %” value ([2]; Tamiflu 20 mg/kg, […], n=9) of the same molecule?
Its value is 22.2%.

What about the Number of survivors ([2]; Tamiflu 20 mg/kg, […], n=9) of the same molecule?
The Number of survivors was 7.

And the “Average lifetime (LD)” value ([2]; Tamiflu 20 mg/kg, […], n=10)?
The value was 11.7 days.

And the “Increase in LD” value ([2]; Tamiflu 20 mg/kg, […], n=10)?
Its value is 0.3 days.

And the “Index of protection, %” value ([2]; Tamiflu 20 mg/kg, […], n=10)?
The value was 16.7%.

And the “Mortality rate, %” value ([2]; Tamiflu 20 mg/kg, […], n=10)?
Its value is 50.0%.

What about the Number of survivors ([2]; Tamiflu 20 mg/kg, […], n=10) of the same molecule?
The Number of survivors was 5.

And the “Size of chronic post-influenza pneumonia sites (% of the total surface area of the lungs)” value ([2]; Tamiflu 20 mg/kg)?
The value was 15 ± 5%.

Which results are given for “N-fullerene tris(δ-aminocaproic acid) hydrate [Agent 1]”?
Average lifetime (LD) ([1]; 30 mg/kg, Summary dose, n=29): 11.8 days; Increase in LD ([1]; 30 mg/kg, Summary dose, n=29): 1.4 days; Mortality rate, % ([1]; 30 mg/kg, Summary dose, n=29): 55.2%; Number of survivors ([1]; 30 mg/kg, Summary dose, n=29): 13; Average lifetime (LD) ([1]; 30 mg/kg, […], n=14): 13.3 days; Increase in LD ([1]; 30 mg/kg, […], n=14): 1.0 days; Mortality rate, % ([1]; 30 mg/kg, […], n=14): 35.7%; Number of survivors ([1]; 30 mg/kg, […], n=14): 9; Average lifetime (LD) ([1]; 30 mg/kg, […], n=15): 10.4 days; Increase in LD ([1]; 30 mg/kg, […], n=15): 2.3 days; Mortality rate, % ([1]; 30 mg/kg, […], n=15): 73.3%; Number of survivors ([1]; 30 mg/kg, […], n=15): 4; Average lifetime (LD) ([1]; 100 mg/kg, Summary dose, n=30): 12.6 days; Increase in LD ([1]; 100 mg/kg, Summary dose, n=30): 2.2 days; Mortality rate, % ([1]; 100 mg/kg, Summary dose, n=30): 40.0%; Number of survivors ([1]; 100 mg/kg, Summary dose, n=30): 18; Average lifetime (LD) ([1]; 300 mg/kg, Summary dose, n=29): 12.5 days; Increase in LD ([1]; 300 mg/kg, Summary dose, n=29): 2.2 days; Mortality rate, % ([1]; 300 mg/kg, Summary dose, n=29): 31.0%; Number of survivors ([1]; 300 mg/kg, Summary dose, n=29): 20; Average lifetime (LD) ([1]; 300 mg/kg, […], n=14): 11.3 days; Increase in LD ([1]; 300 mg/kg, […], n=14): 3.2 days; Mortality rate, % ([1]; 300 mg/kg, […], n=14): 42.9%; Number of survivors ([1]; 300 mg/kg, […], n=14): 8; Average lifetime (LD) ([1]; 300 mg/kg, […], n=15): 13.7 days; Increase in LD ([1]; 300 mg/kg, […], n=15): 1.3 days; Mortality rate, % ([1]; 300 mg/kg, […], n=15): 20.0%; Number of survivors ([1]; 300 mg/kg, […], n=15): 12; Size of chronic post-influenza pneumonia sites (% of the total surface area of the lungs) ([1]; 300 mg/kg): 13 ± 3%; Average lifetime (LD) ([2]; 30 mg/kg, Summary dose, n=25): 13.7 days; Increase in LD ([2]; 30 mg/kg, Summary dose, n=25): 1.4 days; Mortality rate, % ([2]; 30 mg/kg, Summary dose, n=25): 28.0%; Number of survivors ([2]; 30 mg/kg, Summary dose, n=25): 18; Average lifetime (LD) ([2]; 30 mg/kg, […], n=12): 13.2 days; Increase in LD ([2]; 30 mg/kg, […], n=12): 1.8 days; Mortality rate, % ([2]; 30 mg/kg, […], n=12): 41.7%; Number of survivors ([2]; 30 mg/kg, […], n=12): 7; Average lifetime (LD) ([2]; 30 mg/kg, […], n=13): 14.2 days; Increase in LD ([2]; 30 mg/kg, […], n=13): 1.0 days; Mortality rate, % ([2]; 30 mg/kg, […], n=13): 15.4%; Number of survivors ([2]; 30 mg/kg, […], n=13): 11; Average lifetime (LD) ([2]; 100 mg/kg, Summary dose, n=22): 13.6 days; Increase in LD ([2]; 100 mg/kg, Summary dose, n=22): 1.3 days; Mortality rate, % ([2]; 100 mg/kg, Summary dose, n=22): 27.3%; Number of survivors ([2]; 100 mg/kg, Summary dose, n=22): 16; Average lifetime (LD) ([2]; 100 mg/kg, […], n=10): 14.0 days; Increase in LD ([2]; 100 mg/kg, […], n=10): 0.8 days; Mortality rate, % ([2]; 100 mg/kg, […], n=10): 20.0%; Number of survivors ([2]; 100 mg/kg, […], n=10): 8; Average lifetime (LD) ([2]; 100 mg/kg, […], n=12): 13.3 days; Increase in LD ([2]; 100 mg/kg, […], n=12): 1.9 days; Mortality rate, % ([2]; 100 mg/kg, […], n=12): 33.3%; Number of survivors ([2]; 100 mg/kg, […], n=12): 8; Average lifetime (LD) ([2]; 300 mg/kg, Summary dose, n=26): 14.2 days; Increase in LD ([2]; 300 mg/kg, Summary dose, n=26): 1.8 days; Mortality rate, % ([2]; 300 mg/kg, Summary dose, n=26): 15.4%; Number of survivors ([2]; 300 mg/kg, Summary dose, n=26): 22; Size of chronic post-influenza pneumonia sites (% of the total surface area of the lungs) ([2]; 300 mg/kg): 7 ± 2%
